Experimental data reported in US20150274690A1, “Strigolactone Compositions And Uses Thereof” (Asilomar Bio, Inc., priority 2013, published 2015).

Legend:
Striga hermonthica seeds = conditions: 10^-8 M concentrations; cited from earlier work
Alfalfa [1] = assay: Salinity tolerance in alfalfa seedlings; format: in vivo; conditions: 1 mg/mL; irrigated every 48 hours with 35 g/L NaCl; after 5 days
Protocol: Alfalfa was grown from seeds for 14 days. Seedlings were treated with 1 mg/mL AB01 or mock treated. After treatment, plants were irrigated with 100 mL water containing 35 g/L dissolved salt (NaCl). Irrigation was performed every 48 hours and plants monitored for symptoms of salinity stress.

[2] = test system: A. thaliana mutants lacking MAXI cytochrome P450 activity; assay: Complementation of Arabidopsis mutant deficient in strigolactone biosynthesis; format: in vivo, Arabidopsis thaliana; conditions: 1 uM as an irrigation supplement
Protocol: To further validate the bioactivity of AB01 we tested whether the compound could complement mutants of the model plant Arabidopsis thaliana that are deficient in strigolactone biosynthesis. […] We grew MAXI A. thaliana under standard conditions and added 1 uM AB01 as an irrigation supplement, or a mock treatment. […] Thus, the synthetic AB01 is sufficiently similar to strigolactone to both to trigger Striga germination as well as substitute for the natural compound in a model plant.

cut flowers = assay: Vase life extension of cut flowers; format: in vivo
Protocol: This example determines the effect of the application of a plant propagation material comprising strigolactone or analogs or mimics thereof on the onset of water-stress symptoms in cut flowers during storage, shipping, and/or life in retail or consumer environment. We test a wide range of concentrations to focus our investigations of the effects of the plant propagation material on cut flowers. Indicators of water-limitation stress in flowers are measured (approximately daily). We take cut flowers, apply a plant propagation material in irrigation water, and place in a normal storage environment (e.g., regular day-night cycles, room temperature). The concentration of the strigolactone or analog or mimic thereof in the plant propagation material spanned a concentration range from 1 gram per liter to 1 picogram per liter. We then monitor plants daily for the presence of water stress indicators and shelf life, such as flower and leaf rolling (wilting), turgor of stems, chlorophyll content, and loss of petals.
Various concentrations of the strigolactone mimic were added to the irrigation water of the cut flowers. The vase life for cut flowers treated with water-only was approximately 4 days, whereas the vase life for the cut flowers treated with the plant propagation material was approximately 6-7 days.

Alfalfa [3] = assay: Drought tolerance in alfalfa seedlings; format: in vivo; conditions: 1 mg/mL; irrigation stopped; approximately 7 days post-treatment
Protocol: Alfalfa was grown from seeds for 14 days. Seedlings were treated with 1 mg/mL AB01 or mock treated. Irrigation was stopped after treatment and seedlings were monitored for symptoms of water limitation stress.

Seeds of Striga asiatica = assay: Triggering Striga germination (seed germination bioassay); format: in vivo; conditions: for bioactivity: induction of Striga germination (in words): radicle emergence from seeds
Protocol: (B) Bioactivity of synthetic SL. Seeds of Striga asiatica were exposed to SL (right) or a mock treatment (left). […] (C) Synthetic biological pathway for the production of SL in yeast, consisting of enzymes of plant and microbial origin. We tested the ability of AB01 to trigger the germination of Striga seeds. Seeds of Striga asiatica were conditioned by incubation in the dark at 30 degrees for 7 days, and dilutions of the AB01 material in water were applied. We observed that concentrations of 1 nanogram per liter and greater were able to trigger germination of approximately 30% of the seeds, which is similar to published efficiencies and activity for plant-derived strigolactone (FIG. 1A-B).

Tomato seedlings = assay: Salinity tolerance in tomato seedlings; format: in vivo; conditions: 10 mg/mL; 29.2 g/L NaCl irrigation 24 hours after treatment; 6 hours after salt irrigation
Protocol: Tomato seedlings were treated with 10 mg/mL AB01 or mock treated. 24 hours after treatment, they were irrigated with 250 mL water containing 29.2 g/L salt (NaCl).

[4] = test system: Dekalb 67-86 RR corn seedlings; assay: Acute water stress in corn seedlings (leaf rolling score); format: in vivo; conditions: 40 mL of 0.1 mM or 1.0 mM; 6th day without irrigation
Protocol: Corn seedlings were scored as unstressed, moderately water stressed and severely water stressed as measured by visual inspection of leaf rolling, a response of corn to water stress. Dekalb 67-86 RR corn seeds were planted and then irrigated through 7 days after emergence in a greenhouse setting. Seedlings were then treated with 40 mL of water, 0.1 mM AB01 or 1.0 mM AB01 and irrigation ceased. On the 6th day without irrigation, seedlings were scored for water stress. Seedlings with open leaves were scored as unstressed; seedlings with partial leaf rolling were scored as moderately stressed; seedlings with completely rolled leaves were scored as severely stressed.

Seeds of O. cumana = assay: Germination triggering of parasitic weed seeds; format: in vivo; conditions: 48 hours post-treatment; AB01 compared with 5-dS
Protocol: Seeds of O. cumana were primed by incubation on glass fiber filters in darkness at room temperature for 3 days. Specified concentrations of AB01 or 5-dS were applied and seeds were monitored at 48 hours post-treatment. Germination was evident by appearance of haustoria. Experiments were performed in triplicate.

Wheat = assay: Drought tolerance in greenhouse wheat; format: in vivo; conditions: 1 mg in 100 mL water; irrigation stopped; 7 days post treatment
Protocol: Wheat was grown in greenhouse conditions from seed for 6 weeks with adequate irrigation. Plants were treated with 1 mg of AB01 resuspended in acetone and diluted in 100 mL water, or mock treated as a control. Irrigation was stopped and plants monitored for symptoms of drought stress.

Striga = assay: Field trial in Striga infested fields, Siaya County, Kenya; format: in vivo; conditions: 1 gram per acre sprayed 1 week prior to planting
Protocol: Field trial was performed from August 2013 to January 2014 in Siaya County, Kenya. AB01 treated plots were sprayed with a 1 gram per acre dose 1 week prior to planting. Treatment was accomplished by resuspending solid AB01 in 1 mL of acetone, and diluting in 4000 L of water. 3 replicate treated and untreated plots (100 m2 each) were performed. […] (C) The biomass of Striga from each plot was collected and measured after harvest.

[5] = test system: corn (Dekalb hybrid 68-05); assay: Corn field trial, Hays County, Tex., not irrigated; format: in vivo
Protocol: Field trial was performed from April to July 2014 in Hays County, Tex. Dekalb hybrid 68-05 was planted at a density of 25,000 plants per acre (30″rows with 8″spacing). The field was top-dressed with 80 lbs/ac nitrogen. The field was not irrigated. AB01 treated plots were sprayed with a 2 gram per acre dose at the tasseling (VT) stage. Spraying was accomplished by resuspending solid AB01 in 0.5 mL of acetone, and diluting in water for a spray volume of 1 gallon per 500 square feet. Experiments were performed in triplicate […] The fraction of fertilized ears was measured by visual inspection of the ear silk at the R2-R3 stage. Unfertilized silks that appear yellow/green, while fertilized silks appear reddish brown. Completely unfertilized ears have silks that are completely yellow/green, fertilized ears appear brown, while ears with an incomplete degree of fertilized silks have a mixed population of silks. […] Ears were visually inspected at harvest to monitor kernel set (the number of fully formed kernels in the mature ear). […] Ears volume was measured in the field at the R3 stage to calculate ear volume. The length and circumference of each ear was measure, and volume was calculated by treating the ear as a cylinder. Approximately 100 ears from each plot were measured. […] After harvest, ears were shelled and kernels counted and weighed to quantitate the ‘thousand kernel weight’ (TKW), or average mass of kernels in the trial. AB01 treated plots yielded kernels averaging 30% higher mass than control plots. Ears from control and treated plots were harvested, shelled, and moisture tested to quantitate dry mass. Control plots averaged 120 bushels per acre, while AB01 treated plots averaged 143 bushels per acre, a 19% increase. Grain yield is calculated at 15% moisture, a standard measure of harvest output.

**Q.** For `CC1=C[C@H](O/C=C2/C(=O)O[C@@H]3C4=C(C[C@H]23)C(O)CCC4(C)C)OC1=O` (single isomer, unassigned; (+)) [(+)-strigol, (+)-Strigol], which “activity in germination studies of Striga hermonthica seeds” value (Striga hermonthica seeds) is on record?
**A.** 93%

**Q.** Which results are given for `CC1=CC(O/C=C2\C(=O)O[C@]3(C)CCC4C(C)(C)CCC[C@]4(C)[C@@H]23)OC1=O` (stereo partly shown) [AB01]?
**A.** symptoms of salinity stress (chlorosis, vigor) (Alfalfa [1]): displayed significantly higher vigor; impact on phenotype of strigolactone-deficient mutant [2]: visible impact on the phenotype of the mutant; vase life of cut flowers (cut flowers; added to irrigation water, various concentrations, water-only approximately 4 days): 6 to 7 days; vase life extension (cut flowers; versus water-only control): 50-60%; appearance of seedlings under water limitation stress (Alfalfa [3]): treated seedlings appeared robust; fraction of Striga seeds triggered to germinate (Seeds of Striga asiatica; at 1 nanogram per liter and greater): approximately 30%; concentrations able to trigger germination of Striga seeds (Seeds of Striga asiatica; dilutions in water, seeds conditioned in the dark at 30 degrees for 7 days): ≥ 1 nanogram per liter; bioactivity: induction of Striga germination (in words) (Seeds of Striga asiatica): graded dose-response behavior; bioactivity: induction of Striga germination (in words) (Seeds of Striga asiatica; listed as Synthetic SL): potent bioactivity, with nanograms of material inducing germination of Striga seeds; bioactivity: induction of Striga germination (in words) (Seeds of Striga asiatica; listed as synthetic SL): displayed bioactivity; bioactivity: induction of Striga germination (in words) (Seeds of Striga asiatica; listed as synthetically produced SL): effective at germinating seeds of Striga asiatica; symptoms of salinity shock (wilting) (Tomato seedlings): appeared unstressed; fraction of seedlings scored unstressed / severely water stressed [4]: decreased the fraction of severely stressed seedlings while increasing the fraction of unstressed seedlings in a dose-dependent manner; germination triggering efficiency (appearance of haustoria) (Seeds of O. cumana): Significant differences in germination triggering efficiency; symptoms of drought stress (wilting) (Wheat): appeared vigourous; Striga emergence and Striga-related stress in plots (Striga): few signs of Striga-related stress and parasite emergence; biomass of Striga per plot after harvest (Striga): significant reduction in the mass of Striga present; count of emergent Striga per plot (Striga): few parasites in treated plots; increase of grain yields compared to untreated plots (Striga): 25%; increase of harvest grain yield over control plots ([5]; 2 gram per acre spray at VT): 19%; average kernel mass (thousand kernel weight), higher than control plots ([5]; 2 gram per acre spray at VT, after harvest): 30%; harvest grain yield ([5]; 2 gram per acre spray at VT, calculated at 15% moisture, control plots 120): 143 bushels per acre; ear volume ([5]; 2 gram per acre spray at VT, measured at R3 stage, vs mock): significantly higher volumes; kernel set at harvest ([5]; 2 gram per acre spray at VT, visual inspection, vs mock): more complete kernel set and few signs of kernel abortion; fraction of fertilized / unfertilized ears ([5]; 2 gram per acre spray at tasseling (VT), ear silk inspected at R2-R3 stage, vs mock): decreased the fraction of unfertilized ears while increasing the fraction of fertilized ears

**Q.** With `CC1=C[C@H](O/C=C2/C(=O)O[C@@H]3C4=C(CCCC4(C)C)CC23)OC1=O` (stereo partly shown) [5-dS, 5-deoxystrigol, reference compound] as the compound, how does the “germination triggering efficiency (appearance of haustoria)” value (Seeds of O. cumana) read?
**A.** Significant differences in germination triggering efficiency

**Q.** With `CC1=CC(OC=C2C(=O)OC3C4=C(CC23)C(O)CCC4(C)C)OC1=O` (stereo not drawn) [ent-strigol] as the compound, how does the “activity in germination studies of Striga hermonthica seeds” value (Striga hermonthica seeds) read?
**A.** 22%
